Data published in patent publication US12661316B2, “Creatine and/or creatinine compositions and related methods” (ThermoLife International, LLC, priority 2018, dated 2026).
Where two headings read alike, the source gives them in different places.

Key:
[1] = injection of creatinine; mice; cited from earlier work
human blood cells = conditions: addition of creatinine to human blood cells; cited from earlier work
[2] = normal human volunteers who had ingested creatinine; cited from earlier work
[3] = dogs; cited from earlier work
[4] = cited from earlier work; for creatine degraded: three days of storage at 25° C.
[5] = radiokinetic bioavailability study; cited from earlier work
[6] = with caffeine intake; cited from earlier work
[7] = Chemical stability of creatine nitrate, creatine monohydrate and buffered creatine in pH 2.5 and pH 6.8 buffer; conditions: for pH of samples, initial: start of 12 days; for pH of samples, final: within a period of 12 days; for degradation rate constant: about 10 mg/ml
Protocol: The chemical stability of creatine nitrate (CN), creatine monohydrate (CM), and buffered creatine (BC) were examined under two different storage conditions: (1) 37° C. in pH 2.5 buffer and (2) 40° C. in pH 6.8 buffer. A concentration of about 10 mg/ml of CN, CM and BC were prepared in both pH 2.5 and pH 6.8 buffer and stored in stability chambers in screw capped bottles at 37° C. and 40° C., respectively.

[8] = Human study: side effects, liver and kidney function (Example 7); type: in vivo
[9] = cited from earlier work
[10] = dosages up to 30 g for a few days; human subject; cited from earlier work

For `CN1CC(=O)NC1=N` [creatinine], the behavioural effect [1] is listed as “sedating or stupefying effect”, the spontaneous hemolysis (human blood cells) is listed as “significant increase in spontaneous hemolysis” and the red cell lysis [2] is listed as “same red cell lysing pattern”. The erythrocyte survival time [3] was “significant decrease”.

In the case of `CN(CC(=O)O)C(=N)N` [creatine], the stability in solution ([4]; neutral pH (7.5 or 6.5)) is listed as “relatively stable”, the creatine degraded ([4]; pH 3.5) is listed as 21% and the creatine degraded ([4]; pH 4.5) is listed as 12%. For the same compound, the creatine degraded ([4]; pH 5.5) was 4%, the creatine bioavailability [5] was “sharply reduced with increasing doses” and the “ergogenic effect on muscle” value [6] was “completely eliminated”.

In the case of `CN(CC(=O)O)C(=N)N.O` [CM, creatine monohydrate], the “pH of samples, initial” value ([7]; 37° C. in pH 2.5 buffer) is reported as 3.08±0.01, the “pH of samples, final” value ([7]; 37° C. in pH 2.5 buffer) is reported as 4.12±0.01 and the “negative side effects (side effect reporting questionnaire)” value ([8]; in vivo) is reported as “one subject reported gastrointestinal disturbances”. For the same compound, the degradation in solution ([9]; refrigerated) was “slowed the rate of degradation”, the degradation in solution ([9]; stored at room temperature) was “degraded into creatinine within several days” and the “increase of total creatine content in skeletal muscles” value [10] was “more than 20%”.

With `CN(CC(=O)O)C(=N)N.O=[N+]([O-])O` [CN, creatine nitrate] the degradation rate constant ([7]; 37° C. in pH 2.5 buffer) was 0.075±0.001 per day, the degradation rate constant ([7]; 40° C. in pH 6.8 buffer) was 0.115±0.001 per day and the “pH of samples, initial” value ([7]; 40° C. in pH 6.8 buffer) was 2.83±0.01. The “pH of samples, final” value ([7]; 40° C. in pH 6.8 buffer) was 4.31±0.01 and the “negative side effects (side effect reporting questionnaire)” value ([8]; ten human volunteers, nine did not report any negative side effects) was “one subject reported gastrointestinal disturbances”.
